# From the Kinase Knowledgebase extract (Sharma et al. 2016)
# pEC50, pIC50: −log10 of the molar value.
# Experiments:
# [1] = molecular target: PIK3CA (human) (UniProt P42336); experiment: Inhibition of PIK3CA Kinase Activity
# [2] = molecular target: PIK3CA (human) (UniProt P42336); experiment: Inhibition of A2780 Cell Proliferation
# PIK3CA (human), sequence (P42336 whole entry, looked up): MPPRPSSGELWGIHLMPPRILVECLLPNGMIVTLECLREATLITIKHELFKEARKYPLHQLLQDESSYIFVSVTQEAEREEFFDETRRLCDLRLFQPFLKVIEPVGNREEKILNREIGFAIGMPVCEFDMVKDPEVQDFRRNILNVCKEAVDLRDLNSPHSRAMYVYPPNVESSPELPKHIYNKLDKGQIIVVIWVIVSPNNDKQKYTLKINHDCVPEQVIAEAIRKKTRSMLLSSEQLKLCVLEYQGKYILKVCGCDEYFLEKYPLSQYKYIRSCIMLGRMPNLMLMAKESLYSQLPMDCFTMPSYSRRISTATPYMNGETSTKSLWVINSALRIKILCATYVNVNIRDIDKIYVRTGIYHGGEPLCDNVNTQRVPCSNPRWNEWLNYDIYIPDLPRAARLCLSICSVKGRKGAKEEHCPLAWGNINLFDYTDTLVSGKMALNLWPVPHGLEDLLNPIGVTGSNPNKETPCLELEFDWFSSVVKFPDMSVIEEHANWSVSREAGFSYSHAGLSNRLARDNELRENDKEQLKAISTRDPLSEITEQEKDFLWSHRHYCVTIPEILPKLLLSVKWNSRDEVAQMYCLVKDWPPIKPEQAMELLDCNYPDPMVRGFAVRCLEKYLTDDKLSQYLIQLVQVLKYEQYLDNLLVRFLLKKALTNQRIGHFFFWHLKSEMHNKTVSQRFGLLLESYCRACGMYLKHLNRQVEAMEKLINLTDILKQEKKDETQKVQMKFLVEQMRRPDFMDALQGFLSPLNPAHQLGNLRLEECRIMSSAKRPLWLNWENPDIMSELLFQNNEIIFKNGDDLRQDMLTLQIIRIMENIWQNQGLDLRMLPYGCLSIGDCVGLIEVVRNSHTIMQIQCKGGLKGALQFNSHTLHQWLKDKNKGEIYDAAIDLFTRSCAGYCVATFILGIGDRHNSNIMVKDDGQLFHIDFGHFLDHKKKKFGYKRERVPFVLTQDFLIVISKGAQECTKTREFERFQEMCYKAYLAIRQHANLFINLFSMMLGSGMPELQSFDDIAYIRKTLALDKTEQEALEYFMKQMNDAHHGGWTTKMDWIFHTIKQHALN
SMILES,pIC50 [1],pEC50 [2]
CC(=O)NC1CCN(C(=O)Nc2cn3cc(-c4cnc(N)c(C(F)(F)F)c4)ccc3n2)C1 (stereo unspecified),> 6.00,> 4.60
COCCOc1nc(-c2ccc3nc(NC(=O)CN4CCCCC4)cn3c2)cnc1N,> 6.00,> 5.00
COc1cc(-c2ccc3nc(NC(C)=O)cn3n2)c(C)nc1N,> 5.00,> 4.60
CCOCC(=O)Nc1cn2cc(-c3cnc(N)c(C(F)(F)F)c3)ccc2n1,> 6.00,> 5.00
CC(=O)Nc1cn2cc(-c3cnc(N)c(C=NNCC(F)(F)F)c3)ccc2n1,> 6.00,> 6.00
CC(=O)Nc1cn2cc(-c3cnc(N)c(OC4CN(C(=O)c5ccccc5)C4)n3)ccc2n1,> 6.00,> 5.00
CCN(CC)C(=O)c1cc(-c2ccc3nc(NC(C)=O)cn3c2)cnc1N,> 6.00,> 5.00
CCN(CC)Cc1cc(-c2ccc3nc(NC(C)=O)cn3c2)cnc1N,> 6.00,> 4.60
CC(=O)Nc1nc2ccc(-c3cnc(N)c(C(F)(F)F)c3)cn2c1Br,> 6.00,> 4.60
CC(=O)Nc1nc2ccc(-c3cnc(N)c(Br)c3)cn2c1Br,> 6.00,> 5.00
CC(=O)Nc1cn2cc(-c3cnc(N)c(C(F)(F)F)c3)c(F)cc2n1,> 6.00,> 4.60
COCCOc1nc(-c2ccc3nc(NC(=O)C4CCN4)cn3c2)cnc1N (stereo unspecified),> 6.00,> 4.60
COC(=O)Nc1cn2cc(-c3cnc(N)c(C(F)(F)F)c3)ccc2n1,> 6.00,> 5.00
CC(C)(C)OC(=O)N1CC[C@@H](OCC(=O)Nc2cn3nc(-c4cnc(N)c(C(F)(F)F)c4)ccc3n2)C1,> 6.00,> 6.00
CC(=O)Nc1cn2cc(-c3cnc(N)c(-c4ccc(OC(F)(F)F)cc4)c3)ccc2n1,> 6.00,> 6.00
CCC(=O)Nc1cn2cc(-c3cnc(N)c(C(F)(F)F)c3)ccc2n1,> 6.00,> 5.00
CC(=O)Nc1cn2cc(-c3cnc(N)c(-c4ccccc4N4CCOCC4)c3)ccc2n1,> 6.00,> 6.00
CC(=O)Nc1cn2cc(-c3cnc(N)c(Oc4ccccc4)n3)ccc2n1,> 6.00,> 6.00
CN(CC(=O)Nc1cn2nc(-c3cnc(N)c(C(F)(F)F)c3)ccc2n1)C(=O)OC(C)(C)C,> 6.00,> 5.00
CC(=O)Nc1cn2cc(-c3cnc(N)c(OC4CNC4)n3)ccc2n1,> 6.00,> 4.60
CC(=O)Nc1cn2cc(-c3cnc(N)c(CN4CCCC4)c3)ccc2n1,> 6.00,> 4.60
CC(=O)Nc1nc2ccc(-c3cnc(N)c(C(F)(F)F)c3)cn2c1C#N,> 6.00,> 6.00

SMILES,pIC50 [1],pEC50 [2]
CC(=O)Nc1cccc(-c2c(NC(C)=O)nc3ccc(-c4cnc(N)c(C(F)(F)F)c4)cn23)c1,> 6.00,> 4.60
CC(=O)Nc1nc2ccc(-c3cnc(N)c(C(=O)N4CCOCC4)c3)cc2s1,> 6.00,> 5.00
Nc1ncc(-c2ccc3nc(NC(=O)CCCO)cn3c2)cc1C(F)(F)F,> 6.00,> 5.00
Nc1ncc(-c2ccc3nc(NC(=O)CN4CCCCC4)cn3n2)cc1C(F)(F)F,> 6.00,> 5.00
COCCCOc1nc(-c2ccc3nc(NC(C)=O)cn3c2)cnc1N,> 6.00,> 6.00
COc1nc(-c2cc(F)c3nc(NC(C)=O)cn3c2)cnc1N,> 6.00,> 4.60
CNCC(=O)Nc1cn2nc(-c3cnc(N)c(C(F)(F)F)c3)ccc2n1,> 6.00,> 6.00
CC(C)(C)OC(=O)N1CCN(c2ccc(C(=O)Nc3cn4cc(-c5cnc(N)c(C(F)(F)F)c5)ccc4n3)cn2)CC1,> 6.00,> 6.00
CC(=O)Nc1cn2nc(-c3cnc(N)c(C(=O)NCCN4CCCC4)c3)ccc2n1,> 6.00,> 5.00
Nc1ncc(-c2ccc3nc(NC(=O)CCCC(=O)O)cn3n2)cc1C(F)(F)F,> 6.00,> 4.60
CC(C)(C)OC(=O)NCC(=O)Nc1cn2nc(-c3cnc(N)c(C(F)(F)F)c3)ccc2n1,> 6.00,> 5.00
CC(=O)Nc1nc2c(F)cc(-c3cnc(N)c(C(F)(F)F)c3)cc2s1,> 6.00,> 4.60
CC(=O)Nc1cn2nc(-c3cnc(N)cc3C(F)(F)F)ccc2n1,> 6.00,> 4.60
CNC(=O)C1CCN(C(=O)Nc2cn3cc(-c4cnc(N)c(C(F)(F)F)c4)ccc3n2)C1 (stereo unspecified),> 6.00,> 4.60
CC(=O)Nc1cn2cc(-c3cnc(N)c(-c4ccc(N5CCOCC5)cc4)c3)ccc2n1,> 5.00,> 5.00
CC(=O)N1CCCC[C@H]1C(=O)Nc1cn2cc(-c3cnc(N)c(C(F)(F)F)c3)ccc2n1,,> 4.60
CC(=O)Nc1cn2cc(-c3cnc(N)c(OC4CCNCC4)n3)ccc2n1,,> 4.60
CCN1CCC(Oc2nc(-c3ccc4nc(NC(C)=O)cn4c3)cnc2N)CC1,,> 5.00
NC(=O)[C@@H]1CCCN1C(=O)Nc1cn2cc(-c3cnc(N)c(C(F)(F)F)c3)ccc2n1,,> 5.00
CC(=O)Nc1cn2nc(-c3cnc(N)c(OCC(F)(F)F)n3)ccc2n1,,> 5.00
CC(C)C(=O)Nc1cn2cc(-c3cnc(N)c(C(F)(F)F)c3)ccc2n1,,> 4.60
Nc1ncc(-c2ccc3nc(NC(=O)[C@@H]4CCCCN4)cn3c2)cc1C(F)(F)F,,> 5.00
